Reference: patent US6762170B1, “2-(purin-9-yl)-tetrahydrofuran-3,4-diol derivatives” (SmithKlineBeecham Corporation, priority 1998, dated 2004)
Structures can show the parent of a compound that is named as a salt.

Key:
Type in all cases: cell-based
Adenosine 3 receptor = molecular target: T1, Adenosine 3 receptor (Homo sapiens, UniProt P0DMS8); assay: Agonist activity against adenosine 3 receptor subtype (CHO cells, forskolin-enhanced cAMP, SPAP reporter); details: EC50 ratio to NECA; transfected CHO cells, forskolin-enhanced cAMP reflected by SPAP
T1 construct: expressed in transfected cells; host or cells: Chinese hamster ovary (CHO) cells, co-transfected with a CRE-SPAP reporter
T1 sequence (P0DMS8 1-318): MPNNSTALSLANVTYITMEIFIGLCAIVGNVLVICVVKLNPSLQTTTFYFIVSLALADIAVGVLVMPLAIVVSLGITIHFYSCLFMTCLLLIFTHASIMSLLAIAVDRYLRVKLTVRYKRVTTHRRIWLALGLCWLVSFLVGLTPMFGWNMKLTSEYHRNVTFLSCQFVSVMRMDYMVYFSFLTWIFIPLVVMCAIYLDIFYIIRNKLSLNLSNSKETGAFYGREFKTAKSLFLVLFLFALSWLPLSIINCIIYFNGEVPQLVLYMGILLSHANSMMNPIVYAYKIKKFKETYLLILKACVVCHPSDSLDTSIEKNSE
Summary of the method: (§1)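 CHO cells expressed the human receptor plus a cAMP response element–driven SPAP reporter. Agonism was measured as SPAP change from forskolin-enhanced cAMP for A1 and A3, and from basal cAMP for A2a. EC50 is expressed as a ratio to that of NECA.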

Adenosine 2a receptor = molecular target: T2, Adenosine 2a receptor (Homo sapiens, UniProt P29274); assay: Agonist activity against adenosine 2a receptor subtype (CHO cells, cAMP response element/SPAP reporter); details: EC50 ratio to NECA; transfected CHO cells, basal cAMP reflected by SPAP
T2 construct: expressed in transfected cells; host or cells: Chinese hamster ovary (CHO) cells, co-transfected with a CRE-SPAP reporter
T2 sequence (P29274 whole entry): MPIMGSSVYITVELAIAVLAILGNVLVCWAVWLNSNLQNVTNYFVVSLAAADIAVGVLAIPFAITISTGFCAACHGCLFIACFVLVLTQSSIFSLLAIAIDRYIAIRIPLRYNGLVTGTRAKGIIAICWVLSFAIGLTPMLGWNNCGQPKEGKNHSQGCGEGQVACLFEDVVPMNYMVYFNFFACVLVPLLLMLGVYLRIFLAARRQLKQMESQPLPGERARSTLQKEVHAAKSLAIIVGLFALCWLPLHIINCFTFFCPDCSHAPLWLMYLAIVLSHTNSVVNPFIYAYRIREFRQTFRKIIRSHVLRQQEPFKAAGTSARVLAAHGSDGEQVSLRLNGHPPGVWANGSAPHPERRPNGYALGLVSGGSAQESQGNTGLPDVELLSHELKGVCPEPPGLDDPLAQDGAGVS
Summary of the method: as §1

Adenosine 1 receptor = molecular target: T3, Adenosine 1 receptor (Homo sapiens, UniProt P30542); assay: Agonist activity against adenosine 1 receptor subtype (CHO cells, forskolin-enhanced cAMP, SPAP reporter); details: EC50 ratio to NECA; transfected CHO cells, forskolin-enhanced cAMP reflected by SPAP
T3 construct: expressed in transfected cells; host or cells: Chinese hamster ovary (CHO) cells, co-transfected with a CRE-SPAP reporter
T3 sequence (P30542 1-326): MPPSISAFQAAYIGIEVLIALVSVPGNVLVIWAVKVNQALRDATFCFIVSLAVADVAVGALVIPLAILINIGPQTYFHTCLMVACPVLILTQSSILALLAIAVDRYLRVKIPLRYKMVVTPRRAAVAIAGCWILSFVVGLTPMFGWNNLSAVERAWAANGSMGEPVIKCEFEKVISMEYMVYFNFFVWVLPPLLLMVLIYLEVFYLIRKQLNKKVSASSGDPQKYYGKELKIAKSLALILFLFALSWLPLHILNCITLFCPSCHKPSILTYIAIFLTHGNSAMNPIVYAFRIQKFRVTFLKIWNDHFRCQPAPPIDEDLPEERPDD
Summary of the method: as §1

Row | A3 (EC50 values as a ratio of that of NECA) (Adenosine 3 receptor) | A2a (EC50 values as a ratio of that of NECA) (Adenosine 2a receptor) | A1 (EC50 values as a ratio of that of NECA) (Adenosine 1 receptor) | Compound
1 | >335 | 3.53 | 672.4 | CCc1cc(C2OC(n3cnc4c(NCc5ccccc5)nc(NCCc5cn(C)cn5)nc43)C(O)C2O)on1 [Example 43, (2R,3R,4S,5S)-2-{6-Benzylamino-2-[2-(1-methyl-1H-imidazol-1-yl)-ethylamino]-purin-9-yl}-5-(3-ethyl-isoxazol-5-yl)-tetrahydro-furan-3,4-diol diformate]
2 | >237 | 0.11 | 30.1 | CCc1cc([C@H]2O[C@@H](n3cnc4c(NC(CC)CC)nc(NCCc5cn(C)cn5)nc43)[C@H](O)[C@@H]2O)on1.O=CO.O=CO [Example 5, (2S,3S,4R,5R)-2-(3-Ethyl-isoxazol-5-yl)-5-{6-(1-ethyl-propylamino)-2-[2-(1-methyl-1H-imidazol-4-yl)-ethylamino]-purin-9-yl}-tetrahydro-furan-3,4-diol diformate]
3 | >460 | 0.72 | 2580 | CCc1cc(C2OC(n3cnc4c(N)nc(NCCc5ccc(S(N)(=O)=O)cc5)nc43)C(O)C2O)on1 (stereo not drawn) [Example 18, 4-(2-{6-Amino-9-[5S-(3-ethyl-isoxazol-5-yl)-3R,4S-dihydroxy-tetrahydro-furan-2R-yl]-9H-purin-2-ylamino}-benzenesulfonamide formate]
4 | >254 | 9.17 | 8026.2 | CCc1cc(C2OC(n3cnc4c(NCCC5CCCCC5)nc(NC(CO)Cc5ccccc5)nc43)C(O)C2O)on1 [Example 22, (2R,3R,4S,5S)-2-[6-(2-Cyclohexyl-ethylamino)-2-(1 S-hydroxy-methyl-2-phenyl-ethylamino)-purin-9-yl]-5-(3-ethyl-isoxazol-5-yl)-tetrahydro-furan-3,4-diol formate]
5 | ≧248.4 | 4.53 | 155.86 | (2R,3R,4S,5S)-2-{6-(1-Ethyl-propylamino)-2-[2-(1-methyl-1H-imidazol-4-yl)-ethylamino]-purin-9-yl}-5-(3-propyl-isoxazol-5-yl)-tetrahydro-furan-3,4-diol diformate [Example 60]
6 | >262 | 16.03 | 44.21 | CCc1cc(C2OC(n3cnc4c(NC(CO)Cc5ccccc5)nc(NCCN)nc43)C(O)C2O)on1 [Example 64, (2R,3R,4S,5S)-2-[2-(2-Amino-ethylamino)-6-(1S-hydroxymethyl-2-phenyl-ethylamino)-purin-9-yl]-5-(3-ethyl-isoxazol-5-yl)-tetrahydro-furan-3,4-diol diformate]
7 | >385 | 0.13 | 194.3 | (2R,3R,4S,5S)-2-{6-(1-Ethyl-propylamino)-2-[2-(1-methyl-1H-imidazol-4-yl)-ethylamino]-purin-9yl}-5-(3-methyl-isoxazol-5-yl)-tetrahydro-furan-3,4-diol diformate [Example 59]

The next lines start with the compound.

Row | Compound | A3 (EC50 values as a ratio of that of NECA) (Adenosine 3 receptor) | A2a (EC50 values as a ratio of that of NECA) (Adenosine 2a receptor) | A1 (EC50 values as a ratio of that of NECA) (Adenosine 1 receptor)
8 | CCOC(=O)c1cc(C2OC(n3cnc4c(NC(CC)CC)nc(NCCc5cn(C)cn5)nc43)C(O)C2O)on1 (stereo not drawn) [Example 68, 5-(5R-{6-(1-Ethyl-propylamino)-2-[2-(1-methyl-1H-imidazol-4-yl)-ethylamino]-purin-9-yl}-3S,4R-dihydroxy-tetrahydro-furan-2S-yl)-isoxazole-3-carboxylic acid ethyl ester diformate] | >113 | 30.23 | 60.30
9 | CCc1cc(C2OC(n3cnc4c(NCC(c5ccccc5)c5ccccc5)nc(NCCNC(=N)N)nc43)C(O)C2O)on1 (stereo not drawn) [Example 23, N-2-{6-(2,2-Diphenyl-ethylamino)-9-[5S-(3-ethyl-isoxazol-5-yl)-3R,4S-dihydroxy-tetrahydro-furan-2R-yl]-9H-purin-2-ylamino}-ethyl)-guanidine diformate] | >282 | 13.4 | >=3263
10 | CCc1cc([C@H]2O[C@@H](n3cnc4c(NC5CCOCC5)nc(NCCc5ccccn5)nc43)[C@H](O)[C@@H]2O)on1.O=CO.O=CO [Example 13, (2S,3S,4R,5R)-2-(3-Ethyl-isoxazol-5-yl)-5-[2-(2-pyridin-2-yl-ethylamino)-6-(tetrahydro-pyran-4-ylamino)-purin-9-yl]-tetrahydro-furan-3,4-diol diformate] | >146 | 3.03 | 61.9
11 | CCc1cc([C@H]2O[C@@H](n3cnc4c(NC5CCOCC5)nc(NCCN5CCCCC5)nc43)[C@H](O)[C@@H]2O)on1.O=CO.O=CO [Example 14, (2S,3S,4R,5R)-2-(3-Ethyl-isoxazol-5-yl)-5-[2-(2-piperidin-1-yl-ethylamino)-6-(tetrahydro-pyran-4-ylamino)-purin-9-yl]-tetrahydro-furan-3,4-diol diformate] | >254 | 4.99 | 77.1
12 | CCc1cc([C@H]2O[C@@H](n3cnc4c(NCCC(C)(C)C)nc(NCCN5CCCCC5)nc43)[C@H](O)[C@@H]2O)on1.O=CO.O=CO [Example 41, (2R,3R,4S,5S)-2-[6-(3,3-Dimethyl-butylamino)-2-(2-piperidin-1-yl-ethylamino)-purin-9-yl]-5-(3-ethyl-isoxazol-5-yl)-tetrahydro-furan-3,4-diol diformate] | >395 | 27.39 | 2907.96
13 | CCc1cc([C@H]2O[C@@H](n3cnc4c(NC(CC)CC)nc(NCCNc5ccccn5)nc43)[C@H](O)[C@@H]2O)on1.O=CO.O=CO [Example 53, (2S,3S,4R,5R)-2-(3-Ethyl-isoxazol-5-yl)-5-{6-(1-ethyl-propylamino)-2-[2-(pyridin-2-ylamino)-ethylamino]-purin-9-yl}-tetrahydro-furan-3,4-diol diformate] | >229 | 2.11 | 128.9
14 | CCc1cc([C@H]2O[C@@H](n3cnc4c(NC5CCSCC5)nc(NCCN5CCCCC5)nc43)[C@H](O)[C@@H]2O)on1.O=CO.O=CO [Example 12, (2S,3S,4R,5R)-2-(3-Ethyl-isoxazol-5-yl)-5-[2-(2-piperidin-1-yl-ethylamino)-6-(tetrahydro-thiopyran-4-ylamino)-purin-9-yl]-tetrahydro-furan-3,4-diol diformate] | >410 | 3.39 | 260.3
